{"source": "patent US20230083525A1", "about": "“NOVEL COMPOSITION FOR REDUCING STRESS DISORDERS” (SOCIETE DES PRODUITS NESTLE S.A., priority 2019, published 2023)", "origin": "cited, not measured here", "conditions": "value used to convert plasma AUC to production in the colon", "data": [{"smiles": "CC(=O)O", "note": "[acetate]", "values": [{"measurement": "systemic availability", "result": 36, "unit": "%"}]}, {"smiles": "CCCC(=O)O", "note": "[butyrate]", "values": [{"measurement": "systemic availability", "result": 2, "unit": "%"}]}]}
